These results are taken from US6767738B1, “Method of isolating adult mammalian CNS-derived progenitor stem cells using density gradient centrifugation” (The Salk Institute for Biological Studies, priority 1999, dated 2004).

The assay concerns PERCOLL isolated cells. Put plainly: Proliferation of PERCOLL isolated whole brain cells. Particulars: 20 ng/ml bFGF in vitro. It is filed as cell-based, rat. As for the experimental part:
Dissection. Adult female Fischer 344 rats (4-6 months of age) were anesthetized with a mixture of ketamine (44 mg/kg), acepromazine (0.75 mg/kg), and xylazine (4 mg/kg) in 0.9% NaCl and decapitated. The brains were removed and placed into cold phosphate-buffered saline (PBS).
Tissue Preparation. A cell suspension was obtained by pooling the brains from 6 animals from which the cerebella had been trimmed away. The remaining brain tissue was then weighed. The brains were diced into small fragments, and then digested for 40-50 min at 37° C. in Hanks' balanced salt solution containing 0.1% grade II neutral protease (Boehringer Mannheim), 0.01% papain (Worthington), and 0.01% Dnase I (Worthington). The mixture was shaken every five minutes. Every fifteen minutes during the digestion, the tissues were gently disrupted by pipetting the digestion reaction mixture through a 5-ml pipette. The tissue was then rinsed two times with DMEM/F12 containing 10% […] bovine serum, to inactivate digestive enzymes, and filtered through nylon mesh (Nitex, 100 μm pore size), to remove undissociated tissue. The filtered cells were resuspended to a final volume of 10 ml in DMEM/F12/10% FBS.
PERCOLL™ (polyvinylpyrrolidone-coated silica colloids) density gradient preparation and centrifugation. […]

Turning to “FGF-2: basic fibroblast growth factor, human recombinant, prepared in E. coli”, the proliferation response result is listed as “inducible to proliferate”.
